We go through three molecules from patent US6780650B2 (priority 2000, dated 2004).

Read-outs that look alike come from different tables or passages of the source.

Test [1] has as its target T1, hVR1 receptor (Homo sapiens, UniProt Q8NER1).
T1 construct: expressed in transfected cells; host or cells: HEK 293 (HEK 293-hVR1, zeocin-selected); membranes
It is filed as binding. The settings on record: for Kd: read-out: Kd of [^3H]RTX binding to hVR1 receptor.

For test [2], the target named is T1, hVR1 receptor. Type of test: binding. As to conditions: pH 8.
In test [3] the target is T1, hVR1 receptor. The settings on record: read-out: IC50, inhibition of [^3H]RTX binding to hVR1 receptor.

T1 sequence (Q8NER1 whole entry): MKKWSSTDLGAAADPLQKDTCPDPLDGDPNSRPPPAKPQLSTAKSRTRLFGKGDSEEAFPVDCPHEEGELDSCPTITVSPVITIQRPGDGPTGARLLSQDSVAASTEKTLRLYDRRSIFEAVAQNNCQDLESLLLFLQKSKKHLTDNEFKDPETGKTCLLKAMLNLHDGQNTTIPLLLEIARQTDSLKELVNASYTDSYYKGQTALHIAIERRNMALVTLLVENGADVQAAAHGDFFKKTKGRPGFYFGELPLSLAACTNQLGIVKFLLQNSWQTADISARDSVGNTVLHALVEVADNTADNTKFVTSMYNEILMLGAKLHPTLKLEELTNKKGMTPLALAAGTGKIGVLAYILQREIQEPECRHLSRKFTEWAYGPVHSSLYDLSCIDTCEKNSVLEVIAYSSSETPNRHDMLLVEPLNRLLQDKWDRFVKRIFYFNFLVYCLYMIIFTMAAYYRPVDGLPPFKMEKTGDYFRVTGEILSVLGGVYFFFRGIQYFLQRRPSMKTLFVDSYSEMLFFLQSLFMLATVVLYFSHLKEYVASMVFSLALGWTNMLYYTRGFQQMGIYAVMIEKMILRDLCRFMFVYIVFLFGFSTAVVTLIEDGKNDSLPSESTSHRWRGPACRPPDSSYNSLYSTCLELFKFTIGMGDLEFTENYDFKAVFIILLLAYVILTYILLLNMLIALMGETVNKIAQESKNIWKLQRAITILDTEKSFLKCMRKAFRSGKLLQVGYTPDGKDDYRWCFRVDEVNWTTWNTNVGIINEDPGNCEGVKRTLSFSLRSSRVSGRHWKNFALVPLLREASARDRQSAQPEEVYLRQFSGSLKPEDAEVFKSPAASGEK

Regarding `C=C(C)[C@]12C[C@@H](C)[C@@]34O[C@](Cc5ccccc5)(O[C@@H]1[C@@H]3C=C(COC(=O)Cc1ccc(O)c(OC)c1)C[C@]1(O)C(=O)C(C)=C[C@@H]41)O2` [[^3H]RTX, [^3H]resiniferatoxin], the Kd at hVR1 receptor [1] (pH 5.1) is 6.62 ± 5.58 nM; on hVR1 receptor [1] (pH 7.4), 0.65 ± 0.12 nM; on hVR1 receptor [1] (pH 8.6), 0.18 ± 0.04 nM; on hVR1 receptor [1] (pH 9.6) it was 0.6 ± 0.31 nM. The figures for the “Bmax of [^3H]RTX binding to hVR1 receptor” value on hVR1 receptor [1] (pH 7.4), at hVR1 receptor [1] (pH 8.6) and on hVR1 receptor [1] (pH 9.6) were 928 ± 53 fmol/mg protein, 869 ± 41 fmol/mg protein and 661 ± 127 fmol/mg protein, respectively.
Take `O=C(O)CN(CCOCCOCCN(CC(=O)O)CC(=O)O)CC(=O)O` [EGTA]: the “inhibition of [^3H]RTX binding” value at hVR1 receptor [2] is recorded as 70%.
Consider `C=C(C)[C@]12C[C@@H](C)[C@@]34O[C@](Cc5ccccc5)(O[C@@H]1[C@@H]3C=C(COC(=O)Cc1ccc(O)c(OC)c1)C[C@]1(O)C(=O)C(C)=C[C@@H]41)O2` [Resiniferatoxin], for which the results for the IC50 on hVR1 receptor [3] (pH 7.4) and on hVR1 receptor [3] (pH 8.6) were 0.78 ± 0.15 nM and 0.25 ± 0.03 nM, respectively.

Usually Kd stands for the equilibrium constant for the complex coming apart. As a reminder, the IC50 is the concentration at which inhibition is half-maximal.
